Data taken from patent EP2653156A1, “Pharmaceutical emulsion composition and use thereof” (College of Pharmacy of Taif University, priority 2012, dated 2013).

Test: Particle size distribution of insulin and/or L-arginine solutions by photon correlation spectroscopy (Malvern Zetasizer Nano-ZS)
Format: physicochemical
Conditions: for Median particle size D(i), Stability in form of particle size / Median particle size D(i): by intensity; for Median particle size D(i), Stability in form of particle size / Median particle size D(i) / Median particle size (n, 0.5) D(n), Stability in form of particle size / Median particle size (n, 0.5) D(n): unit nm; for Median particle size (n, 0.5) D(n), Stability in form of particle size / Median particle size (n, 0.5) D(n): by number
Protocol: Determination of the particle size distribution of Insulin and/or L-arginine by number as D (n, 0.5) and by intensity as D (i, 0.5) using nanosizer
The particle size distribution of two separate solutions of insulin (1 U/ml) prepared using 0.1 M HCl and L-arginine (1 mg/ml) prepared in distilled water was determined. In addition, a mixture of particles prepared by mixing insulin and L-arginine previous solutions in 1:1 v/v ratio was assessed by photon correlation spectroscopy using a Malvern Zetasizer Nano-ZS series (Malvern Instruments, UK). Collective 10 readings were performed three times on a sample at 25 °C with a detection angle of 173°. The median and standard deviations were calculated by the instrument. The viscosity was determined using a Vibro viscometer (SV-10, A&D Company, Japan) at 25°C.

[1] = Table 1 (by number), Room temp for 24 hr
[2] = Table 1 (by number), stability at 50°C for 2 hrs
[3] = Table 1 (by number), stability at 50 °C for 24 hrs
[4] = Table 2 (by intensity), Room temp for 24 hr
[5] = Table 2 (by intensity), stability at 50 °C for 2 hrs
[6] = Table 2 (by intensity), stability at 50°C for 24 hrs

Structure (SMILES)	Pdl [1]	Pdl [2]	Pdl [3]	Pdl [4]	Pdl [5]	Pdl [6]	Median particle size D(i), Stability in form of particle size (50 °C for 2 hrs) [nm]	Median particle size D(i), Stability in form of particle size (50°C for 24 hrs) [nm]	Median particle size D(i) (Room temp for 24 hr) [nm]	Median particle size (n, 0.5) D(n), Stability in form of particle size (50°C for 2 hrs) [nm]	Median particle size (n, 0.5) D(n), Stability in form of particle size (50 °C for 24 hrs) [nm]	Median particle size (n, 0.5) D(n) (Room temp for 24 hr) [nm]	particle size (in the aqueous solution)
N=C(N)NCCC[C@H](N)C(=O)O [L-arginine (1 mg/ml), L-arginine]	0.474	0.517	0.31	0.474	0.517	0.31	115	148	122	102	93.8	74.8	100-150 nm
N=C(N)NCCC[C@H](N)C(=O)O [L-arginine (10mg/ml), L-arginine]	0.442	0.522	0.436	0.442	0.522	0.436	174	126	129	85.8	80.6	109	–
